According to patent publication US20090227533A1, “miR-34 Regulated Genes and Pathways as Targets for Therapeutic Intervention” (priority 2007, published 2009):

Tests used:
[1] = tested on: normal human T cells; settings: cited from earlier work
[2] = tested on: H226 cells; assay: Alamar Blue proliferation assay, lung cancer cells (electroporation); assay type: cell-based, human; settings: hsa-miR-34a (head: 30 nM), electroporation, 72 hours, normalized to NC (100%)
Text: The inventors assessed the therapeutic effect of hsa-miR-34a for lung cancer by using eight individual lung cancer cell lines. To measure cellular proliferation of lung cancer cells, the following non-small cell lung cancer (NSCLC) cells were used: cells derived from lung adenocarcinoma (A549, H522, Calu-3, HCC2935), cells derived from lung squamous cell carcinoma (H226), cell derived from lung adenosquamous cell carcinoma (H596), cells derived from lung bronchioalveolar carcinoma (H1650), and cells derived from lung large cell carcinoma (H460). Synthetic hsa-miR-34a (Pre-miR™-hsa-miR-34a, Ambion cat. no. AM17100) or negative control (NC) miRNA (Pre-miR™ microRNA Precursor Molecule-Negative Control #2; Ambion cat. no. AM17111) was delivered via lipid-based transfection into A549, H522, H596, Calu-3, HCC2935, H1650, H460 cells and via electroporation into H226 cells.
Lipid-based reverse transfections were carried out in triplicate according to a published protocol (Ovcharenko et al., 2005) and the following parameters: cells (5,000-12,000 per 96 well), 0.1-0.2 μl Lipofectamine™ 2000 (cat. no. 11668-019, Invitrogen Corp., Carlsbad, Calif., USA) in 20 μl OptiMEM (Invitrogen), 30 nM final concentration of miRNA in 100 μl. Electroporation of H226 cells was carried out using the BioRad Gene Pulser Xcell™ instrument (BioRad Laboratories Inc., Hercules, Calif., USA) with the following settings: 5×10^6 cells with 5 μg miRNA in 200 μl OptiMEM (1.6 μM miRNA), square wave pulse at 250 V for 5 ms. Electroporated H226 cells were seeded at 7,000 cells per 96-well in a total volume of 100 μl. All cells except for Calu-3 cells were harvested 72 hours post transfection or electroporation for assessment of cellular proliferation. Calu-3 cells were harvested 10 days post transfection. Proliferation assays were performed using Alamar Blue (Invitrogen) following the manufacturer's instructions. As a control for inhibition of cellular proliferation, siRNA against the motor protein kinesin 11, also known as Eg5, was used. […]

[3] = tested on: prostate cancer cells PPC-1, Du145, LNCaP and RWPE2; assay: Alamar Blue proliferation assay, average over four prostate cancer cell lines; assay type: cell-based, human
Text: The inventors assessed the therapeutic effect of hsa-miR-34a for prostate cancer by using four individual human prostate cancer cell lines. To measure cellular proliferation of prostate cancer cells, the following prostate cancer cell lines were used: PPC-1, derived from a bone metastasis; Du145, derived from a brain metastasis; RWPE2, derived from prostate cells immortalized by human papillomavirus 18 and transformed by the K-RAS oncogene; and LNCaP, derived from a lymph node metastasis (Bello et al., 1997; Pretlow et al., 1993; Stone et al., 1978; Brothman et al., 1991; Horoszewicz et al., 1980). PPC-1 and Du145 cells lack expression of the prostate-specific antigen (PSA) and are independent of androgen receptor (AR) signaling. In contrast, RWPE2 and LNCaP cells test positive for PSA and AR. Cells were transfected with synthetic hsa-miR-34a (Pre-miR™-hsa-miR-34a, Ambion cat. no. AM17100) or negative control miRNA (NC; Pre-miR™ microRNA Precursor Molecule-Negative Control #2; Ambion cat. no. AM17111) in a 96-well format using a lipid-based transfection reagent. […] Proliferation was assessed 4-7 days post-transfection using Alamar Blue™ (Invitrogen) following the manufacturer's instructions. […] Fluorescent light units (FLU) were measured after 3 hours, normalized to the control, and plotted as percent change in proliferation. […]

## hsa-miR-34a: synthetic miRNA; mature sequence UGGCAGUGUCUUAGCUGGUUGUU (MIMAT0000255; SEQ ID NO:1) (synthetic miRNA, chemistry not given here)
[1]
  proliferation: no anti-proliferative effect
[2]
  % proliferation: 89.50%
[3]; average over four prostate cancer cell lines, 30 nM, relative to negative control miRNA
  average inhibition of cellular proliferation: 37.18%
[3]; prostate cancer cell lines
  growth-inhibitory activity compared with siEg5: comparable to that of Eg5-directed siRNA
